Laboratory results from article PMC8205077, “Phenyl-substituted aminomethylene-bisphosphonates inhibit human P5C reductase and show antiproliferative activity against proline-hyperproducing tumour cells” (Journal of Enzyme Inhibition and Medicinal Chemistry, 2021).
Where a name gives a salt, the structure may show the parent alone. Read-outs that look alike come from different tables or passages of the source.

Columns and labels:
[1] = biological target: human P5C reductase; settings: cited from earlier work
[2] = test system: breast cancer cell; settings: at 10 μM; cited from earlier work
[3] = biological target: T1, human P5C reductase 1 (PYCR1) (Homo sapiens, UniProt P32322); assay: P5C reductase assay (P5C-dependent oxidation of NAD(P)H); assay type: biochemical; settings: for effect on the activity of human P5C reductase: at concentrations as low as 1 μM
T1 construct: His-tag; made in house; host or cells: E. coli BL21(DE3) pLysS
T1 sequence (P32322 1-319): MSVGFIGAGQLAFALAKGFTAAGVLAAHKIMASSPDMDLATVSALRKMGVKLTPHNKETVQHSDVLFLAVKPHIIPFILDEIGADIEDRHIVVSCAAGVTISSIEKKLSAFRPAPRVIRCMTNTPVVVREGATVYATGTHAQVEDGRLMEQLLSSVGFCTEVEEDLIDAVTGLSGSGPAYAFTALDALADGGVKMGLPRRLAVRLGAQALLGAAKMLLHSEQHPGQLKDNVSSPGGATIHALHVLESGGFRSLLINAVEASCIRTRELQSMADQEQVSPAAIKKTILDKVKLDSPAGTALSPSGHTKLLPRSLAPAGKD
Method: The gene coding for P5C reductase 1 (PYCR1, gene ID 5831), cloned into the expression vector pET28a^+[34], was kindly provided by prof. Zihe Rao (Tsinghua University, China). For heterologous expression, E. coli BL21(DE3) pLysS cells (Invitrogen) were made competent by the calcium chloride method, transformed with the recombinant vector and selected on kanamycin-containing LB plates. About 6 h after inducing gene expression in liquid LB medium at 24 °C by the addition of 1 mM isopropyl-D-thiogalactopyranoside, cells were harvested by centrifugation and stored at −20 °C. Aliquots (about 1 g cell material) were lysed in an ice-cold mortar with 2 g g^−1 alumina and resuspended in 20 mL g^−1 extraction buffer (50 mM Na phosphate buffer, pH 7.5, containing 200 mM NaCl and 20 mM imidazole). The His-tagged protein was purified from clarified extracts by affinity chromatography onto a His-Trap^TM FF column (1 mL, GE Healthcare 17–5319-01). Stepwise elution was achieved by increasing concentrations of imidazole in extraction buffer. Discontinuous SDS–polyacrylamide gel electrophoresis was performed at 8 mA with a 5% stacking and a 12% separating gel, using a Minigel system (BioRad). Samples were mixed with the same volume of 125 mM Tris–HCl buffer (pH 6.8) containing 4% (w/v) SDS, 20% (v/v) glycerol and 10% (v/v) β-mercaptoethanol, and denatured 5 min at 100 °C. Proteins were visualised by soaking gels in Quick Coomassie Stain (CliniSciences) overnight.
Enzyme activity was measured at 30 °C as the P5C-dependent oxidation of NAD(P)H. Assays were performed in 96-microwell plates in a final volume of 0.2 mL. The assay mixture contained 4 mM DL-P5C and 0.5 mM of either NADH or NADPH in 50 mM Tris-HCl buffer, pH 7.5. Parallel blanks were performed in which P5C had been omitted. The decrease of absorbance was measured for 5 min at 0.5-min intervals using a Ledetect plate reader (Labexim, Lengau, Austria) equipped with a LED plugin at 340 nm. Residual NAD(P)H content was estimated on the basis of calibration curves obtained under the same conditions. Activity was calculated by linear regression of data using Prism 6 for Windows, version 6.03 (GraphPad Software, San Diego, CA); one unit of activity was defined as the amount of enzyme that catalyses the P5C-dependent oxidation of 1 nmol NAD(P)H s^−1 (nkat). Proteins were measured by the Coomassie Brilliant Blue method, using bovine serum albumin as the standard. To evaluate substrate affinity, invariable substrates were fixed at the same levels as in the standard assay. For variable substrates, L-P5C ranged from 400 to 2000 μM, while the concentration of NADH and NADPH ranged from 125 to 500 μM. To evaluate the inhibition brought about by pargylines and aminomethylene-bisphosphonates, freshly prepared 10 mM stock solution in water and 100 mM Tris-HCl buffer pH 7.5, respectively, were diluted with water and added to the reaction mixture before enzyme addition. Parallel control samples were carried out in the absence of any inhibitor. Activity was calculated as described above. Mean activity value in controls was set as 100%, and activity in treated samples was expressed as percent of such value. Percent values were plotted against the logarithm of inhibitor concentration, and data were interpolated using the equation Y = 100/(1 + 10^∧((LogIC50-X)*HillSlope)). Assays were performed in triplicate (technical replications). Each experiment was repeated at least twice with different enzyme preparations (biological replicates). KM and Vmax values, as well as the concentrations causing 50% inhibition (IC50), KI values and their confidence intervals were estimated by non-linear regression analysis using Prism 6.

[4] = biological target: glutamine synthetase; settings: human enzyme; cited from earlier work
[5] = test system: human epithelial breast cancer MDA-MB-231 cells; assay: Antiproliferative assay, MDA-MB-231 cells; assay type: cell-based
Method: (§1) Human myelogenous erythroleukemic K562 cells[36] were cultured in a humidified atmosphere of 5% CO2/air either in complete RPMI 1640 medium (Lonza, Verviers, Belgium) or in a modified medium without L-proline (United States Biological, Massachusetts, USA), both supplemented with 10% foetal bovine serum (FBS; Biowest, Nuaillé, France), 100 U mL^−1 penicillin and 100 μg mL^−1 streptomycin. Human epithelial breast cancer MDA-MB-231 cells[37] were cultured under the same conditions in DMEM medium (Lonza, Verviers, Belgium) supplemented with 10% FBS, 100 U mL^−1 penicillin, 100 μg mL^−1 streptomycin and 2 mM L-glutamine.
K562 cells in the late exponential phase of growth were seeded in 1 mL medium without FBS in 24-well plates to an initial density of about 20,000 cells mL^−1. Treatments with Br2PAMBPA in the range 1–200 µM were carried out 5 h after seeding. Cell growth was monitored at increasing time after the treatment by determining cell density on 50-μL aliquots with a Z1 Coulter Counter (Coulter Electronics), considering a dimensional range between 8 and 20 μm. MDA-MB-231 cells in the late exponential phase of growth (90% confluence) were washed with sterile PBS, incubated with sterile trypsin-EDTA solution (Sigma-Aldrich, Saint Louis, USA) for 2 min, resuspended in fresh DMEM medium and centrifuged at 1000 g at room temperature for 5 min. Pellets were resuspended in sterile PBS and spun again to remove any residue of trypsin. […] Treatments with Br2PAMBPA in the range 1–200 µM were carried out 5 h after seeding, and 2% FBS was added to each well 24 h thereafter. Cell growth was monitored at increasing time after the treatment by destructive harvest. For both cell lines each treatment was carried out at least in triplication, and each experiment was performed at least twice.

[6] = test system: human myelogenous erythroleukemic K562 cells; assay: Antiproliferative assay, K562 cells; assay type: cell-based; settings: for IC50: Homo sapiens, K562
Method: as §1
K562 cells in the late exponential phase of growth were seeded in 1 mL medium without FBS in 24-well plates to an initial density of about 20,000 cells mL^−1. Treatments with Br2PAMBPA in the range 1–200 µM were carried out 5 h after seeding. Cell growth was monitored at increasing time after the treatment by determining cell density on 50-μL aliquots with a Z1 Coulter Counter (Coulter Electronics), considering a dimensional range between 8 and 20 μm. MDA-MB-231 cells in the late exponential phase of growth (90% confluence) were washed with sterile PBS, incubated with sterile trypsin-EDTA solution (Sigma-Aldrich, Saint Louis, USA) for 2 min, resuspended in fresh DMEM medium and centrifuged at 1000 g at room temperature for 5 min. Pellets were resuspended in sterile PBS and spun again to remove any residue of trypsin. Cells were finally resuspended in DMEM medium without FBS, and seeded in 24-well plates in a final volume of 1 mL to an initial density of about 20,000 cells mL^−1. Treatments with Br2PAMBPA in the range 1–200 µM were carried out 5 h after seeding, and 2% FBS was added to each well 24 h thereafter. Cell growth was monitored at increasing time after the treatment by destructive harvest. For both cell lines each treatment was carried out at least in triplication, and each experiment was performed at least twice.

[7] = test system: K562 cells; assay: Cell viability assay (Trypan Blue exclusion), K562 cells; assay type: cell-based, human; settings: modified RPMI medium not containing proline, 96 h after the inoculum
Method: Cell viability was assessed by the Trypan Blue exclusion test[38]. Stained cells were counted in a Bürker chamber. Viable and nonviable cells were recorded separately, and the results of three independent counts were pooled. Data were expressed as percent of alive cells.

[8] = test system: K562 cells; assay: Measurement of intracellular free proline and P5C levels, K562 cells; assay type: cell-based, human
Method: For proline and P5C quantification, treatments were carried out in T-25 flasks containing 10 mL medium. Cells were harvested by centrifugation at 1000 g for 5 min at RT. Each pellet was resuspended in 1.4 mL of sterile PBS and spun again to remove the medium. Washed pellets were transferred on ice, resuspended in a minimal volume of a 3% (w/v) solution of 5-sulfosalicylic acid and subjected to various freeze-thaw cycles to induce rupture of the phospholipid membrane. Cell debris were sedimented by centrifugation at 12,000 g for 5 min at RT, and the supernatants were analysed by the acid ninhydrin method of Williams and Frank, as described.

[9] = IC50, NADH as the electron donor
[10] = IC50, NADPH as the electron donor
[11] = IC50 values, abstract, cofactor not specified
[12] = treated serum-free, 2% FBS added 24 h thereafter

Question: With `C#CCN(C)Cc1ccc(Br)cc1` [4-bromopargyline, reference compound] as the compound, how does the IC50 [1] read?
Answer: 9 µM

Question: And the “reduction of breast cancer cell proliferation” value [2]?
Answer: 30–40%

Question: And the IC50 [3, 9]?
Answer: 234 ± 28 µM

Question: What about the IC50 [3, 10] of the same compound?
Answer: 9 µM

Question: And the IC50 ([3]; NADPH as the electron donor, read-out: IC50)?
Answer: 8.7 ± 0.8 µM

Question: Which IC50 ([1]; listed as pargylin) does the source give for `C#CCN(C)Cc1ccccc1` [Pargyline, N-methyl-N-(2-propynyl)benzylamine hydrochloride, reference compound] here?
Answer: 200 µM

Question: What about the IC50 ([1]; listed as pargyline) of the same compound?
Answer: 198 µM

Question: What about the IC50 [3, 9] of the same compound?
Answer: > 10000 µM

Question: What about the IC50 [3, 10] of the same compound?
Answer: 81 µM

Question: For `O=P(O)(O)C(Nc1cc(Cl)cc(Cl)c1)P(=O)(O)O` [3,5-Cl2PAMBPA], which IC50 [3, 9] is on record?
Answer: 0.78 ± 0.04 µM

Question: And the IC50 [3, 10]?
Answer: 0.74 ± 0.06 µM

Question: And the IC50 [3, 11]?
Answer: < 1 µM

Question: What about the “mechanism of inhibition against both P5C and NADPH” value ([3]; abstract) of the same compound?
Answer: competitive type

Question: What about the “effect on the activity of human P5C reductase” value [3] of the same compound?
Answer: almost completely suppressed

Question: And the IC50 [4]?
Answer: 780 ± 30 µM

Question: Which “effect on cell proliferation in standard medium” value ([5]; DMEM with FBS, concentrations exceeding 50 μM, preliminary, data not shown) does the source give for `O=P(O)(O)C(Nc1cc(Br)cc(Br)c1)P(=O)(O)O` [Br2PAMBPA, 3,5-dibromophenylaminomethylene-bisphosphonic acid] here?
Answer: only mild effects

Question: What about the “concentrations progressively impairing growth” value ([5]; abstract) of the same compound?
Answer: 10^−6 to 10^−4 M

Question: And the “concentration from which cell growth rate and maximal cell density were progressively reduced” value [5, 12]?
Answer: ≥ 5 µM

Question: What about the “concentration from which cell proliferation was completely abolished” value [5, 12] of the same compound?
Answer: ≥ 50 µM

Question: What about the IC50 ([6]; modified RPMI medium not containing proline, read-out: concentration giving 50%-inhibition of growth) of the same compound?
Answer: ~20 µM

Question: What about the IC50 ([6]; unmodified RPMI medium containing 20 mg L^−1 (174 μM) Pro, read-out: concentration giving 50% inhibition of growth) of the same compound?
Answer: ~7 µM

Question: What about the “concentrations progressively impairing growth” value ([6]; abstract) of the same compound?
Answer: 10^−6 to 10^−4 M

Question: And the “concentration range in which growth was inhibited” value ([6]; modified RPMI medium not containing proline)?
Answer: 2 to 200 µM

Question: What about the “concentrations at which cell viability was significantly reduced” value [7] of the same compound?
Answer: exceeding 50 µM

Question: What about the “levels of P5C” value ([8]; all cases, detection limit printed as > 1 nmol [10^6 cells]^−1) of the same compound?
Answer: no detectable

Question: And the free proline concentration ([8]; control and treated K562 cells, with or without exogenous proline)?
Answer: 4–5 nmol (10^6 cells)^−1

Question: What about the “intracellular levels of free proline vs controls” value ([8]; modified RPMI medium not containing proline, 96 h after the inoculum) of the same compound?
Answer: not significantly different than in controls

Question: What about the “reduction of free proline content with respect to viable cells” value ([8]; unmodified RPMI medium with 20 mg L^−1 Pro, at 50 µM) of the same compound?
Answer: less than 50%

Question: What about the “free proline content with respect to viable cells” value ([8]; unmodified RPMI medium with 20 mg L^−1 Pro, up to 50 µM) of the same compound?
Answer: no reduction was evident

Question: And the “type of inhibition with NADH as the variable substrate” value [3]?
Answer: mixed-type

Question: What about the IC50 [3, 9] of the same compound?
Answer: 0.48 ± 0.03 µM

Question: What about the IC50 [3, 10] of the same compound?
Answer: 0.39 ± 0.03 µM

Question: What about the IC50 [3, 11] of the same compound?
Answer: < 1 µM

Question: And the Ki ([3]; NADH as variable substrate (Fig. 4D))?
Answer: 660 ± 210 nM

Question: And the Ki ([3]; NADPH as variable substrate (Fig. 4C))?
Answer: 480 ± 80 nM

Question: And the Ki ([3]; P5C as variable substrate, NADH as electron donor (Fig. 4B))?
Answer: 120 ± 10 nM

Question: And the Ki ([3]; P5C as variable substrate, NADPH as electron donor (Fig. 4A))?
Answer: 320 ± 20 nM

Question: And the “mechanism of inhibition against both P5C and NADPH” value ([3]; abstract)?
Answer: competitive type

Question: What about the “effect on the activity of human P5C reductase” value [3] of the same compound?
Answer: almost completely suppressed

Question: And the “type of inhibition against P5C” value ([3]; with NADPH or NADH as the electron donor)?
Answer: competitive type
